Eight molecules from PubChem BioAssay (NCI) can be followed below.

Values joined by “and” are separate entries in the source; they are usually repeats but may differ in a detail not shown here. Equal values may be shown once.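 Growth conditions: 96-well plates. Treatment: test compound, 48 hours, 5 concentrations. Analysis: linear interpolation between bracketing concentrations; unreached endpoints set to highest concentration. GI50 is the concentration that inhibits growth by half. TGI is the concentration that stops growth completely.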

Assay in all cases: NCI tumour cell line growth inhibition, 48 h
Test [1] concerns A549 NSCLC.
Test [2] has as its system CCRF-CEM leukemia.
Test [3] relates to HCC-2998 colon.
The subject of test [4] is HOP-92 NSCLC.
Test [5] has as its system K-562 leukemia.
Test [6] relates to M14 melanoma.
Test [7] deals with NCI/ADR-RES ovarian.
Test [8] relates to OVCAR-4 ovarian.
Test [9] deals with SN12C renal.
The subject of test [10] is UO-31 renal.

For `C[C@@H](CO)[C@@H]1CCC=C2CC[C@]3(C)[C@H](CC[C@@H]4[C@@]5(C)CCCNC(C)(C)[C@@H]5CC[C@]43C)[C@H]21`, the GI50 in test [1] was 2.24 µM; in test [2], 3.08 µM; in [3], 1.62 µM; in test [4], 1.87 µM; in test [5], 2.01 µM; in test [6] it was 2.31 µM. For the same molecule, the GI50 was 2.05 µM in test [7], 1.98 µM in test [8], 3.11 µM in test [9] and 2.21 µM in [10]. The TGI stood at 5.04 µM in test [1]; 13.9 µM in [2]; 3.11 µM in [3]; 8.71 µM in test [4]; 6.73 µM in test [5]; 5.13 µM in test [6]. Moreover, the TGI in [7] was 4.45 µM; in test [8], 5.02 µM; in test [9], 12.5 µM; in [10], 6.8 µM.
For `CCCCCCCCCCCC1CCCC(C)N1` (centres undefined), the GI50 was 13.4 µM in [1]; 1.45 µM in test [2]; 2.05 µM in test [3]; 6.67 µM in test [4]; 1.96 µM in [5]; 8.47 µM in test [6]. The GI50 in test [7] is 11.9 µM; in [8], 7.18 µM; in test [9], 6.3 µM; in test [10] it was 3.29 µM. In addition, the TGI in [1] is 32.7 µM and 164 µM; in [4], 31.8 µM and 90.2 µM; in test [6] it was 31.7 µM; in [7], 27.3 µM and 161 µM; in test [8], 22.3 µM and 136 µM; in test [9] it was 23.9 µM and 131 µM. In addition, in test [10], the TGI is 16.4 µM and 105 µM.
`COc1ccc2c(c1)C(=O)c1c-2c(Nc2ccc(Cl)cc2)nc2ccccc12`: the GI50 was 13.3 µM in [1]; 32 µM in test [2]; 22.1 µM in [3]; 11.5 µM in test [4]; 71.6 µM in test [5]; 31 µM in test [6]. Besides, the GI50 in test [7] is 16.6 µM; in test [8], 10.1 µM; in test [9], 17.7 µM; in test [10] it was 25.8 µM. The TGI in test [1] was 39.7 µM; in [2], greater than 100 µM; in [3] it was greater than 100 µM; in [4], 39.2 µM; in test [5], greater than 100 µM; in [6], greater than 100 µM. Further, the TGI was greater than 100 µM in test [7], 42.9 µM in [8], 57.1 µM in [9] and greater than 100 µM in test [10].
For `N#Cc1c(N)nc(N2CCOCC2)c(C#N)c1-c1cccnc1`, the GI50 in [1] was greater than 100 µM; in test [2], 39.3 µM; in [3], 8.8 µM; in [4], 24.8 µM; in [5], 71.7 µM; in test [6], 71.2 µM. The GI50 is 81.7 µM in [7], 44.4 µM in test [8], 97.2 µM in test [9] and 24.1 µM in test [10]. The TGI in test [1] was greater than 100 µM; in test [2], greater than 100 µM; in test [3] it was 49.4 µM; in test [4], greater than 100 µM; in [5], greater than 100 µM; in test [6], greater than 100 µM. Moreover, the TGI in test [7], in test [8], in test [9] and in [10] was greater than 100 µM in each case.
Turning to `CCNC(=O)c1cc2c(-c3cc(C(C)(C)O)ccc3Oc3c(C)cc(F)cc3C)cn(C)c(=O)c2[nH]1`, the GI50 in test [1] was 2.1 µM; in test [2] it was 2.21 µM; in test [3], 1.66 µM; in [4] it was 0.257 µM; in test [5] it was 1.86 µM; in [6], 1.46 µM. For the same molecule, the GI50 in test [7] is 7.49 µM; in test [8], 1.84 µM; in test [9], 3.03 µM; in test [10], 0.1 µM. In addition, the TGI in [1] was 14.6 µM; in test [2] it was 23.9 µM; in test [3] it was 4.03 µM; in [4], 10.9 µM; in test [5] it was greater than 100 µM; in [6], 14.2 µM. In addition, the TGI in test [7] was determined as 23.2 µM; in [8] it was 16.6 µM; in test [9], 16.8 µM; in [10], 10.9 µM.
Regarding `O=C(NCc1ccc(Cn2c(=O)sn(-c3ccccc3)c2=O)cc1)OCc1ccc2c(Br)cc(Br)c(O)c2n1`, the GI50 in test [1] was 1.51 µM; in [2], 0.351 µM; in test [3], 1.8 µM; in test [4], 0.379 µM; in [5] it was 0.322 µM; in test [6], 0.412 µM. Moreover, the GI50 in test [7] is 1.2 µM; in test [8], 0.695 µM; in test [9], 0.703 µM; in [10] it was 0.392 µM. For the same molecule, the TGI was 3.78 µM in test [1]; greater than 100 µM in [2]; 3.41 µM in [3]; 1.84 µM in test [4]; greater than 100 µM in [5]; 1.51 µM in test [6]. Further, the TGI was 7.06 µM in test [7], 1.96 µM in test [8], 2.06 µM in test [9] and 1.77 µM in test [10].
`CC1OC(OC2C(O[C@H]3CC[C@@]4(C)C(=CC[C@H]5[C@@H]6C[C@@H]7O[C@]8(CC[C@H](C)CN8)[C@@H](C)[C@@H]7[C@@]6(C)CC[C@@H]54)C3)OC(CO)C(O)C2OC2OC(CO)C(O)C(O)C2O)C(O)C(O)C1O` (some centres undefined): the TGI in test [1] was determined as 34.5 µM; in test [2], 39.3 µM; in [3], 32.2 µM; in [4] it was 35.5 µM; in [6], 37.8 µM; in test [7], 32.5 µM. Further, the figures for the TGI in test [8], in test [9] and in test [10] were 37 µM, 38.6 µM and 33.2 µM, respectively.
`O=[N+]([O-])c1c(Br)sc(Br)c1[N+](=O)[O-]`: the GI50 in [1] is 13.7 µM; in [2], 1.11 µM; in [3] it was 12.3 µM; in test [4], 1.87 µM; in [5], 0.815 µM; in test [7], 3.3 µM. Further, the GI50 was 1.85 µM in test [8], 3.12 µM in test [9] and 1.59 µM in test [10]. For the same molecule, the TGI in test [1] was determined as 41.5 µM; in [2] it was 4.15 µM; in test [3] it was 26.2 µM; in [4], 3.57 µM; in test [5], 3.99 µM; in [7] it was 23.8 µM. Further, the results for the TGI in [8], in test [9] and in [10] were 3.62 µM, 10.9 µM and 3.55 µM, respectively.
